Tests used:
C57Bl/6 mice [1] = assay: Elevated plus maze; type: in vivo, mouse; conditions: chronic 10 mg/kg/day IP, week 1 of testing
Source text: See Supplementary Methods for details.
Elevated Plus Maze: The maze was made of acrylonitrile butadiene styrene (ABS) plastic and had two open arms and two close arms that were 30 cm long and 5 cm wide. The center area where the open and close arms meet was 5 cm x 5 cm. The open arms had 2 mm lips at the edges, and the closed arms had 15 cm opaque walls. The maze was elevated 50 cm and surrounded by privacy blinds during the test. The maze was illuminated to 7 lux using red light throughout the test. Each mouse was released in the center of the maze and given 5 min to explore the maze. Duration and frequency in each zone of the maze were recorded using Ethovision (Noldus Information Technology, Wageningen, the Netherlands) tracking software. […]

C57Bl/6 mice [2] = assay: Fear conditioning; type: in vivo, mouse; conditions: chronic 10 mg/kg/day IP, week 4 of testing
Source text: See Supplementary Methods for details. […]
Fear Conditioning: Coulbourn Instruments (Holliston, MA, USA) fear conditioning system and FreezeFrame software were used for analysis. The experiment consisted of 1 day of training, 1 day of contextual testing, and 1 day of cued testing. The training and contextual testing chambers were identical with similar context. The walls were made of aluminum. The floor was […]
a gray metal grid through which the US was delivered, and the chambers used yellow color house light and were scented with mint extract to produce a unique smell in the chambers. The chambers were cleaned with a 10% simple green solution (Sunshine Makers, Inc.) between each mouse. The cued testing chambers were circular-shaped, made of plastic, used blue color house light, and were scented with vanilla extract to create a unique context different from training and contextual testing. This chamber was cleaned with 70% ethanol between each mouse. Both chambers were mounted within specially designed sound-attenuating chambers.
Each chamber had speakers mounted on the wall and included an exhaust fan and camera. On Day 1 training, mice were placed individually into a training chamber for 200 seconds. A tone (20 seconds, 80 dB, 2 kHz) was presented to the mouse, followed by an electrical shock (intensity 0.5 mA, 2 seconds) 18 seconds after the end of the tone (Misane et al. 2005, Burman 2014, Lugo et al. 2014). This procedure was repeated two times with a 60 second interval from the end of the shock to the next tone. The mouse was removed from the chamber and returned to the home cage 60 seconds after the last shock. On Day 2, the mice were placed back into the training chamber without any tone or shock for contextual memory testing for 15 minutes. On Day 3, the mice were placed into the cued testing chamber with just tones (20 seconds, 80dB, 2 kHz) presented 3 times with 80 second intervals after 200 seconds of habituation. Overall, the mice received the tone and shock pairings only on the training day. An overhead camera was used to record mice freezing behavior. The fear conditioning test was conducted after four weeks of exposure to compounds or vehicle.
We have shown when studying the cognitive enhancement in normal, young control mice, overtraining of the animals will lead to saturation of behavioral learning, making it very difficult to display pharmacological improvements in behavioral paradigms. We therefore chose less training trials per day and less number of training days in the Morris water maze to increase the likelihood of observing drug effects. Likewise, the fear conditioning task, we chose lower shock

C57Bl/6 mice [3] = assay: Y maze spontaneous alternation; type: in vivo, mouse; conditions: chronic 10 mg/kg/day IP, week 2 of testing
Source text: Y Maze Spontaneous Alternation: The Y maze is made of plastic with 3 arms in a "Y" shape.
The arms are labelled as Arm A, B, and C; Arm A is 20.32 cm (L) x 5 cm (W) 12.7 cm (H), Arm B and C are 15.24 cm (L) x 5 cm (W), and 12.7 cm (H). The test is based on the willingness of rodents to explore a novel environment and designed to measure spontaneous alternations in rodents. Each mouse was placed in the center of the maze facing Arm B. The first entry was excluded from data analysis because the animals were led to the initial arm entry by the experimenter. Using an overhead camera, the number of arm entries and alternations were recorded for 5 minutes. An arm entry is when all four paws enter into a new arm of the maze.
The apparatus was cleaned with 1% Virkon. Parameters recorded were % alternation and the total number of entries into arms. […]

C57Bl/6 mice [4] = assay: Chronic low dose exposure, mortality and body weight; conditions: 10 mg/kg/day IP for a month
Method: Behavioral tests were performed on 2 month-old, male, C57Bl/6 mice. We selected male mice because SBFNL historical controls are male mice. First, we assessed safety and tolerability of acute exposure to our novel chemicals through the following sequence of tests immediately following IP injection: maximum tolerated dose with novel cage observation at 100, 300, or 900 mg/kg, and then SHIRPA, activity chamber, and then hot plate latency using 100 or 30 mg/kg IP in different drug naïve mice. […] Animals were dosed daily from 3 to 5 PM after the conclusion of each behavioral testing session. […] See Supplementary Methods for details. […]
sound-attenuating chamber was 74 cm (L) x 60 cm (W) x 60 cm (H). The mice were placed in the corner of the testing arena and allowed to explore the arena for 60 min while being tracked automatically. Parameters measured include distance moved, velocity, rearing, and times spent in the periphery and center of the Arena. Periphery was defined as the zone 5 cm away from the arena wall. The Arena was cleaned with a 1% Virkon solution at the end of the trial.
The novel cage observation (vide supra) and activity chamber open field assessment are not […]
outcome. The novel cage protocol is conducted on the benchtop in a lighted room using a clean home cage, and tests habituation using video recording and scoring of behavioral performance.
Moreover, the novel cage allows the tester to visualize any other side effects such as seizure or repetitive jumping. The activity chamber is in an enclosed box, and the test is done in the dark, without bedding, and in a sound isolating chamber. The activity chamber measures distance moved using infrared beams and without video recordings.
In vivo animal studies; Chronic Efficacy Study using C57Bl/6J mice
Animal: Two month-old, naïve male C57Bl/6 mice from Jackson Laboratory (Stock ID# 000664) were used in the study. The animals were housed as described above.
Dosing: (R)-2MeGlu (10 mg/kg), (S)-2MeGlu (10 mg/kg), rac-2MeGln (10 mg/kg), and vehicle (PBS) were administered IP at 10 ml/kg dosing volume daily. […]

Compound | Time spent in the open arms in the elevated plus maze (C57Bl/6 mice [1]) | Fear conditioning Day 1, learning of the tone-shock association (C57Bl/6 mice [2]) | Fear conditioning Day 2, contextual recall vs vehicle (C57Bl/6 mice [2]) | Fear conditioning Day 3, freezing during cued recall or tone presentation vs vehicle (C57Bl/6 mice [2]) | Spontaneous alternation in the Y maze (C57Bl/6 mice [3]) | Body weight over the month (C57Bl/6 mice [4])
C[C@@](N)(CCC(=O)O)C(=O)O [(R)-2MeGlu, (R)-2-methylglutamic acid] | no significant effect of treatment | equivalent learning of the tone-shock association | no significant effect of treatments | no significant differences detected | no significant effect of treatment | no significant effect of treatment
CC(N)(CCC(N)=O)C(=O)O (racemic) [rac-2MeGln, rac-2-methylglutamine] | no significant effect of treatment | equivalent learning of the tone-shock association | no significant effect of treatments | no significant differences detected | no significant effect of treatment | no significant effect of treatment
C[C@](N)(CCC(=O)O)C(=O)O [(S)-2MeGlu, (S)-2-methylglutamic acid] | no significant effect of treatment | equivalent learning of the tone-shock association | no significant effect of treatments | no significant differences detected | no significant effect of treatment | no significant effect of treatment
